Data set [1] is described as follows: Stability of crystalline material under warm humid conditions (40° C., 75% relative humidity), PXRD before and after. It is filed as physicochemical. The settings on record: for Stable?: stored at 40° C., 75% relative humidity, stable = retained crystal form for at least two weeks by PXRD. The procedure: The stability of these compounds under warm humid conditions was assessed as follows:
The crystalline material was stored at 40° C. in an atmosphere of 75% relative humidity.
Compounds were classed as stable if they retained their crystal form for at least two weeks as verified by examination of PXRD patterns collected before and after exposure to humidity.
It can be seen that the pattern obtained after 2 months at 75% relative humidity and 40° C. (upper trace) in this case is different.

Data set [2] is described as follows: Bioavailability in vivo in rats: lithium in plasma and brain by ICP-OES after oral administration. The procedure: Male Sprague-Dawley rats, weighing 240-290 g, were treated through gastric intubation with formulations of lithium and compared with lithium carbonate as a reference. For each formulation a group of 12 rats was treated. 4 mEq/kg of lithium were orally administered, after suspension in 2 mL of corn seeds oil (“Olio Cuore”).
Four intervals' post-administration time (2, 24, 48 and 72 hours) were considered and three rats for each of them, employing the protocol used by Zaworotko and coworkers (Smith et al., Mol. Pharmaceutics 2013, 10, 4728-4738). At each time interval blood samples were collected through intra-cardiac […], these were treated with 50 μL of sodium heparin and centrifuged for 10 min at 1600 rpm. Plasma samples of approximately […] each were thus obtained. The brain was explanted in toto with perfusion with phosphate buffered saline (PBS) in order to preserve it in a viable state. The plasma and brain samples were immediately frozen at a temperature of −80° C., after measuring the weight of the brains.
In order to determine the concentration of the lithium by means of the ICP-OES (Inductively Coupled Plasma Optical Emission Spectometry) analysis, plasma and brain samples were purified and mineralized, respectively to obtain solutions suitable for analysis.
A 0.5 mL aliquot was taken from each sample, to which were added equal amounts of MilliQ water and concentrated nitric acid, in order to bring the lithium ion in solution in the form of LiNO3 and to obtain the precipitation of the proteins. At this point, each sample was sonicated for 10 min in an ultrasonic bath and diluted to a volume of 5.0 mL.
All samples were subjected to centrifugation for a period of 40 min, at a rotational speed of 6000 rpm, to obtain complete plasma proteins/solution separation. At the end supernatant liquid containing lithium was diluted to a final volume of 15 mL by adding MilliQ water. The obtained solutions were stored at a temperature of 4° C. until analysis.
The purpose of this phase was to obtain liquid samples, suitable to ICP-OES analysis, containing lithium in solution, starting from the solid organic tissue of the brain. The mineralization process allows the complete degradation of organic substances until the total transformation into simple inorganic substances.
The first operation performed was that the drying of the fabric, obtained through the use of a digester open PerkinElmer SPB 100-12: each sample of brain has been inserted in special containers Digitube™ 100 mL and maintained at a temperature of 80° C. for 120 min.
The second step involved the mineralization true and proper brain: each sample were added to 10 mL of concentrated nitric acid and 1.0 mL of hydrogen peroxide, then the system was brought to a temperature of 120° C. for 120 min. until the complete mineralization. With this procedure you get the desired biological degradation of organic compounds and the consequent passage of lithium in solution. The solutions thus obtained were collected, brought to a final volume of 20 mL with MilliQ water and preserved at a temperature of 4° C. until time of analysis.
In order to obtain the determination of lithium ion concentrations in the samples previously prepared, optical emission spectrometry inductively coupled plasma ICP-OES was used (PerkinElmer Optima 8000 spectrometer).
The analysis was conducted at the fixed wavelength of lithium (λ=670.784 nm) and the intensity of the radiation emitted by each sample was measured and compared standard solutions.
Plasma and brain concentration data were processed using a non-compartmental approach using WinNonlin® software (Pharsight Corporation, USA) and Microsoft Excel XP (Microsoft Corporation, […]).

Setting [3] is: rat brain, 4 mEq/kg lithium oral, non-compartmental.
Where [4] appears, read: rat plasma, 4 mEq/kg lithium oral, non-compartmental.

“And” between values parts separate entries of the source, which are not always exact repeats. Identical values can stand only once.

For `NC(=O)c1ccncc1.O.O=C([O-])/C=C\C(=O)O.[Li+]` [Compound 22, [Li(maleate)(isonicotinamide) (water)]n], the “Stable?” value in data set [1] was “No”.

For `O=C(O)C(=O)O.O=C(O)C(=O)O.O=C([O-])C(=O)O.[Li+].c1c[nH]cn1.c1c[nH]cn1` [Compound 11, [(imidazolium)2^+(Li(hydogen oxalate)(oxalate))^−(oxalic acid)]], in data set [1] (after 2 months at 75% relative humidity and 40° C.), the “PXRD pattern after storage compared with initial pattern” value is reported as “different”. The “Stable?” value in data set [1] was “No”.

On to `CC1(C)C2CCC1(CS(=O)(=O)[O-])C(=O)C2.CNCC(=O)O.O.O.[Li+]` (stereo not shown) [Compound 30, [Li(camphorsulfonate)(sarcosine)(water)2]], for which the “Stable?” value in data set [1] is reported as “No”.

Consider [Li2 (fumarate)]n [Compound 15], for which, in data set [1], the “Stable?” value was “Yes”.

As for “[Li(pyridoxinate)(water)]n [Compound 10]”, the “Stable?” value in data set [1] is on record as “No”.

For “[(imidazolium)2^+(Li(hydrogen malate)2(water))^−] [Compound 33]”, the “Stable?” value in data set [1] is “No”.

Regarding `CC1=CC(=O)[N-]S(=O)(=O)O1.O.[Li+]` [Compound 23, [Li(acesulfame)(water)]n], the “Stable?” value in data set [1] is on record as “No”.

Consider `NC(=O)c1ccncc1.NC(=O)c1ccncc1.NC(=O)c1ccncc1.NC(=O)c1ccncc1.NC(=O)c1ccncc1.NC(=O)c1ccncc1.NC(=O)c1ccncc1.NC(=O)c1ccncc1.O=C([O-])c1ccccc1O.O=C([O-])c1ccccc1O.O=C([O-])c1ccccc1O.O=C([O-])c1ccccc1O.[Li+].[Li+].[Li+].[Li+]` [Compound 32, [Li2(salicylate)2(isonicotinamide)4]2], for which, in data set [1], the “Stable?” value is given as “No”.

`CNCC(=O)O.O.O=C([O-])c1ccc(O)cc1.[Li+]` [Compound 19, [Li(sarcosine)(4-hydroxybenzoate)(water)]n]: the “Stable?” value in data set [1] is “No”.

In the case of `O=C([O-])[O-].[Li+].[Li+]` [Lithium carbonate, lithium carbonate, reference compound], in data set [2] (setting [3]), the “Cmax (brain)” value stood at 5.9900 µg/g and the “Tmax (brain)” value is 24 h. Further, the “t½_Lambda_z (brain)” value in data set [2] (rat brain, 4 mEq/kg lithium oral, terminal phase) turned out to be 13.7913 h. For the same molecule, in data set [2] (rat brain, 4 mEq/kg lithium oral, time 0 to last quantifiable point), the “AUClast (brain)” value is 232.4100 mg·h/g. For the same molecule, the “Relative Brain BA (UL crystal forms, oral vs Li2CO3, oral)” value in data set [2] (rat brain, relative to lithium carbonate) is listed as 100.00%. For the same molecule, in data set [2] (setting [4]), the “Cmax (plasma)” value was 8.4133 µg/mL and the “Tmax (plasma)” value is 24 h. Moreover, in data set [2] (rat plasma, 4 mEq/kg lithium oral, terminal phase), the “t½_Lambda_z (plasma)” value stood at 7.3913 h. Besides, the “Relative Plasma BA (UL crystal forms, oral vs Li2CO3 oral)” value in data set [2] (rat plasma, relative to lithium carbonate) was determined as 100.00%. In data set [2] (rat, 4 mEq/kg lithium oral, 2 h, lithium in brain, individual rats (three per time)), the “BRAIN CONC., Time(h) 2.00” value is 0.60 µg/g and 1.43 µg/g and 0.68 µg/g. In addition, the “PLASMA CONC, Time(h) 2.00” value in data set [2] (rat, 4 mEq/kg lithium oral, 2 h, lithium in plasma, individual rats (three per time)) was 3.02 µg/mL and 4.82 µg/mL and 2.72 µg/mL. In data set [2] (rat, 4 mEq/kg lithium oral, 24 h, lithium in brain, individual rats (three per time)), the “BRAIN CONC., Time(h) 24.00” value was 7.89 µg/g and 4.55 µg/g and 5.53 µg/g. Also, the “PLASMA CONC, Time(h) 24.00” value in data set [2] (rat, 4 mEq/kg lithium oral, 24 h, lithium in plasma, individual rats (three per time)) was 8.72 µg/mL and 5.32 µg/mL and 11.20 µg/mL. Also, in data set [2] (rat, 4 mEq/kg lithium oral, 48 h, lithium in brain, individual rats (three per time)), the “BRAIN CONC., Time(h) 48.00” value is 3.35 µg/g and 2.89 µg/g and 3.43 µg/g. Moreover, the “PLASMA CONC, Time(h) 48.00” value in data set [2] (rat, 4 mEq/kg lithium oral, 48 h, lithium in plasma, individual rats (three per time)) is 1.29 µg/mL and 1.18 µg/mL and 1.60 µg/mL. In addition, the “BRAIN CONC., Time(h) 72.00” value in data set [2] (rat, 4 mEq/kg lithium oral, 72 h, lithium in brain, individual rats (three per time)) is 0.54 µg/g and 0.52 µg/g and 0.55 µg/g. The “PLASMA CONC, Time(h) 72.00” value in data set [2] (rat, 4 mEq/kg lithium oral, 72 h, lithium in plasma, individual rats (three per time)) was 0.14 µg/mL and 0.06 µg/mL and 0.08 µg/mL.

For `O=C([O-])CCC(=O)[O-].[Li+].[Li+]` [Compound 16, [Li2 (succinate)]n], in data set [1], the “Stable?” value is reported as “Yes”.

Take `CC1(C)C2CCC1(CS(=O)(=O)[O-])C(=O)C2.CC1(C)C2CCC1(CS(=O)(=O)[O-])C(=O)C2.NC(N)=O.NC(N)=O.O.O.[Li+].[Li+]` (stereo not shown) [Compound 28, [Li2(camphorsulphonate)2(urea)2 (water)2]]: the “Stable?” value in data set [1] is listed as “No”.

For “{[Li(malate) (water)2]•(imidazolium)}n [Compound 26]”, the “Stable?” value in data set [1] is given as “No”.

As for “{[Li(p-toluenesulfonate)]•H30}n [Compound 31]”, the “Stable?” value in data set [1] is reported as “No”.

Turning to [Li2 (oxalate)]n [Compound 17], the “Stable?” value in data set [1] is on record as “Yes”.

As for Li(adeninate)(water)3 [Compound 8], the “Stable?” value in data set [1] is given as “No”.

On to “[Li(hydrogen maleate)(sarcosine)(water)] [Compound 27]”, for which, in data set [1], the “Stable?” value is recorded as “No”.

Values taken from US12234248B2, “Co-crystal compounds comprising lithium ions and isonicotinamide” (UNIVERSITY OF LIMERICK, priority 2017, dated 2025).
